Tests used:
Conditions in all cases: 48 h
SEM cells [1] = experiment: cell viability relative to DMSO control; higher = less cytotoxic
Summary of the method: (§1)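 Leukemia cells (NOMO1 or SEM, 500 cells/well; P12-Ichikawa, 1000 cells/well) were seeded in 5 μl in 1536-well plates after at least four passages of adaptation to each medium. They received library compounds in DMSO by pin dosing, 11 threefold points from 47 μM to 0.79 nM. Luminescence with CellTiter-Glo One was read after 48 h at 37°C. Viability is stated per plate relative to DMSO wells, with cell-free wells as background.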

NOMO1 [2] = experiment: AUC of viability dose-response curve (% viability x log10 dose units); higher = less sensitive
Summary of the method: (§2)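 Library compounds in DMSO were applied for 48 h at 37°C at 11 threefold doses (47 μM to 0.79 nM) to medium-adapted leukemia cells in 1536-well plates holding 500 or 1000 cells/well. Luminescence from CellTiter-Glo One was normalised plate by plate against DMSO and cell-free wells. Area under the curve came from trapezoidal integration of a log-logistic fit, after scaling curves that rose above full viability and discarding those that failed quality control. The fit had four parameters and used log10 doses.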

P12-Ichikawa [3] = experiment: as above
Summary of the method: as §2

SEM cells [4] = experiment: as above
Summary of the method: as §2

P12-Ichikawa [5] = experiment: cell viability relative to DMSO control; higher = less cytotoxic
Summary of the method: as §1

NOMO1 [6] = experiment: as above
Summary of the method: as §1

N[C@@H](Cc1c[nH]c2ccc(O)cc12)C(=O)O
SEM cells [1], HPLM + 10% dialyzed FBS
Conditions	cell viability [%]
0.000781 µM	114
0.00234 µM	110
0.00702 µM	120
0.0211 µM	120
0.0632 µM	94.1
0.19 µM	121
0.569 µM	105
1.71 µM	110
5.12 µM	102
15.4 µM	85
46.1 µM	80.8

AUC of viability dose-response curve
Conditions	NOMO1 [2]	P12-Ichikawa [3]	SEM cells [4]
HPLM + 10% dialyzed FBS	391	462	454
RPMI 5 mM glucose + 10% FBS	411	444	401
RPMI 5 mM glucose + 10% dialyzed FBS	392	458	398

Cn1cnc2c(F)c(Nc3ccc(Br)cc3Cl)c(C(=O)NOCCO)cc21
AUC of viability dose-response curve
Conditions	NOMO1 [2]	P12-Ichikawa [3]	SEM cells [4]
HPLM + 10% dialyzed FBS	260	295	295
RPMI 5 mM glucose + 10% FBS	289	295	278
RPMI 5 mM glucose + 10% dialyzed FBS	258	299	273

CNNCc1ccc(C(=O)NC(C)C)cc1
cell viability [%], HPLM + 10% dialyzed FBS
Conditions	P12-Ichikawa [5]	SEM cells [1]
0.000781 µM	118	102
0.00234 µM	123	118
0.00702 µM	125	130
0.0211 µM	136	117
0.0632 µM	124	139
0.19 µM	137	133
0.569 µM	135	107
1.71 µM	144	132
5.12 µM	133	83.7
15.4 µM	119	92.1
46.1 µM	99.7	40.7

AUC of viability dose-response curve
Conditions	NOMO1 [2]	P12-Ichikawa [3]	SEM cells [4]
HPLM + 10% dialyzed FBS	465	467	434
RPMI 5 mM glucose + 10% FBS	468	464	452
RPMI 5 mM glucose + 10% dialyzed FBS	468	466	448

CN1C(=O)CCS(=O)(=O)C1c1ccc(Cl)cc1 (centres undefined)
AUC of viability dose-response curve
Conditions	HPLM + 10% dialyzed FBS	RPMI 5 mM glucose + 10% FBS	RPMI 5 mM glucose + 10% dialyzed FBS
NOMO1 [2]	447	472	459
P12-Ichikawa [3]	452	448	442

O=[S+]([O-])(F)Cc1ccccc1
SEM cells [1], HPLM + 10% dialyzed FBS
Conditions	cell viability [%]
0.000781 µM	120
0.00234 µM	122
0.00702 µM	134
0.0211 µM	122
0.0632 µM	125
0.19 µM	50.5
0.569 µM	109
1.71 µM	133
5.12 µM	114
15.4 µM	115
46.1 µM	112

AUC of viability dose-response curve
Conditions	NOMO1 [2]	P12-Ichikawa [3]	SEM cells [4]
HPLM + 10% dialyzed FBS	434	446	455
RPMI 5 mM glucose + 10% FBS	468	448	440
RPMI 5 mM glucose + 10% dialyzed FBS	476	442	446

CN1CCN(Cc2ccc(NC(=O)Nc3ccc(Oc4cc(NC(=O)C5CC5)ncn4)cc3)cc2C(F)(F)F)CC1
cell viability [%]
Conditions	NOMO1 [6]	P12-Ichikawa [5]	SEM cells [1]
HPLM + 10% dialyzed FBS, 0.000781 µM	104	100	86.5
HPLM + 10% dialyzed FBS, 0.00234 µM	104	108	72.2
HPLM + 10% dialyzed FBS, 0.00702 µM	120	103	54.1
HPLM + 10% dialyzed FBS, 0.0211 µM	129	113	53.4
HPLM + 10% dialyzed FBS, 0.0632 µM	143	114	51.4
HPLM + 10% dialyzed FBS, 0.19 µM	141	113	25
HPLM + 10% dialyzed FBS, 0.569 µM	12	46.7	6.43
HPLM + 10% dialyzed FBS, 1.71 µM	4.6	9.49	5.04
HPLM + 10% dialyzed FBS, 5.12 µM	3.07	10.2	3.88
HPLM + 10% dialyzed FBS, 15.4 µM	2.49	8.59	3.17
HPLM + 10% dialyzed FBS, 46.1 µM	0.956	0.0522	0.399
RPMI 5 mM glucose + 10% FBS, 0.000781 µM	110	105	103
RPMI 5 mM glucose + 10% FBS, 0.00234 µM	125	110	80.1
RPMI 5 mM glucose + 10% FBS, 0.00702 µM	118	117	53.9
RPMI 5 mM glucose + 10% FBS, 0.0211 µM	125	121	49.1
RPMI 5 mM glucose + 10% FBS, 0.0632 µM	138	122	41.6
RPMI 5 mM glucose + 10% FBS, 0.19 µM	149	132	23
RPMI 5 mM glucose + 10% FBS, 0.569 µM	22	44.7	4.1
RPMI 5 mM glucose + 10% FBS, 1.71 µM	8.28	9.59	2.81
RPMI 5 mM glucose + 10% FBS, 5.12 µM	6.02	8.79	2.25
RPMI 5 mM glucose + 10% FBS, 15.4 µM	4.38	6.05	1.45
RPMI 5 mM glucose + 10% FBS, 46.1 µM	2.32	0.799	0.371
RPMI 5 mM glucose + 10% dialyzed FBS, 0.000781 µM	106	92.4	94.9
RPMI 5 mM glucose + 10% dialyzed FBS, 0.00234 µM	122	113	72.4
RPMI 5 mM glucose + 10% dialyzed FBS, 0.00702 µM	114	111	44.6
RPMI 5 mM glucose + 10% dialyzed FBS, 0.0211 µM	125	121	36.5
RPMI 5 mM glucose + 10% dialyzed FBS, 0.0632 µM	146	122	46
RPMI 5 mM glucose + 10% dialyzed FBS, 0.19 µM	161	123	23.7
RPMI 5 mM glucose + 10% dialyzed FBS, 0.569 µM	18	35.4	5.01
RPMI 5 mM glucose + 10% dialyzed FBS, 1.71 µM	6.64	12.8	4.22
RPMI 5 mM glucose + 10% dialyzed FBS, 5.12 µM	5.97	11.6	3.2
RPMI 5 mM glucose + 10% dialyzed FBS, 15.4 µM	3.84	11.8	2.37
RPMI 5 mM glucose + 10% dialyzed FBS, 46.1 µM	2.43	0.55	0.407

AUC of viability dose-response curve
Conditions	HPLM + 10% dialyzed FBS	RPMI 5 mM glucose + 10% FBS	RPMI 5 mM glucose + 10% dialyzed FBS
NOMO1 [2]	271	278	275
P12-Ichikawa [3]	285	289	291

O=C(/C=C/C=C/c1ccc2c(c1)OCO2)N1CCCCC1
cell viability [%], SEM cells [1]
Conditions	HPLM + 10% dialyzed FBS	RPMI 5 mM glucose + 10% dialyzed FBS
0.000781 µM	129	114
0.00234 µM	119	129
0.00702 µM	125	103
0.0211 µM	127	157
0.0632 µM	139	146
0.19 µM	128	129
0.569 µM	116	150
1.71 µM	133	131
5.12 µM	132	167
15.4 µM	119	140
46.1 µM	87.1	108

AUC of viability dose-response curve
Conditions	NOMO1 [2]	P12-Ichikawa [3]	SEM cells [4]
HPLM + 10% dialyzed FBS	429	446	466
RPMI 5 mM glucose + 10% FBS	444	463	448
RPMI 5 mM glucose + 10% dialyzed FBS	448	467	456

Cc1nnc(N[S+](=O)([O-])c2ccc(N)cc2)s1
AUC of viability dose-response curve
Conditions	HPLM + 10% dialyzed FBS	RPMI 5 mM glucose + 10% FBS	RPMI 5 mM glucose + 10% dialyzed FBS
P12-Ichikawa [3]	390	394	412
SEM cells [4]	450	443	449

CNC(=O)c1cc(Oc2ccc(NC(=O)Nc3ccc(Cl)c(C(F)(F)F)c3)cc2)ccn1
cell viability [%], SEM cells [1]
Conditions	RPMI 5 mM glucose + 10% FBS	RPMI 5 mM glucose + 10% dialyzed FBS
0.000781 µM	108	109
0.00234 µM	112	108
0.00702 µM	89.1	98.8
0.0211 µM	89.8	79.3
0.0632 µM	70.8	64.7
0.19 µM	57.1	57.8
0.569 µM	54	59.7
1.71 µM	75.3	63.8
5.12 µM	63.9	72.1
15.4 µM	63	68.9
46.1 µM	5.7	11.6

AUC of viability dose-response curve
Conditions	NOMO1 [2]	P12-Ichikawa [3]	SEM cells [4]
HPLM + 10% dialyzed FBS	445	457	278
RPMI 5 mM glucose + 10% FBS	448	448	313
RPMI 5 mM glucose + 10% dialyzed FBS	432	448	317
